# Species: Rattus norvegicus
# Assay: Open TG-GATES - Regimen: Single
# Type: toxicity, organism-based, Sprague-Dawley
# Set-up: regimen Single, gender Male, age 6 weeks
# Details: in vivo, po, 60 mg/kg, route gavage, dose level High; for APTT / Bas / Eos / Fbg / Hb / Ht / Lym / MCH / MCHC / MCV / Mono / Neu / PT / Plat / RBC / Ret / WBC: tissue Blood; for KIDNEY_L / KIDNEY_R / KIDNEY_TOTAL: tissue Kidney; for LIVER: tissue Liver; for A/G / ALP / ALT / AST / BUN / CRE / Ca / Cl / DBIL / GLC / IP / K / LDH / Na / PL / RALB / TBIL / TC / TG / TP / gamma-GTP: tissue Plasma
smiles,measurement,setting,value
CC(C)NNC(=O)c1ccncc1 [IPRONIAZID],TERMINAL_BW,3 h,204.9 g
same,APTT,3 h,22.1 s
same,Bas,3 h,0%
same,Eos,3 h,1%
same,Fbg,3 h,294 mg/dL
same,Hb,3 h,12.7 g/dL
same,Ht,3 h,37%
same,Lym,3 h,74.8%
same,MCH,3 h,20.9 pg
same,MCHC,3 h,34.2%
same,MCV,3 h,61 fL
same,Mono,3 h,2%
same,Neu,3 h,21.8%
same,PT,3 h,16.2 s
same,Plat,3 h,124.5 x10_4/uL
same,RBC,3 h,608.8 x10_4/ul
same,Ret,3 h,7.9%
same,WBC,3 h,90.6 x10_2/uL
same,KIDNEY_L,3 h,1 g
same,KIDNEY_R,3 h,1 g
same,KIDNEY_TOTAL,3 h,1.9 g
same,LIVER,3 h,8.8 g
same,A/G,3 h,1.3
same,ALP,3 h,1312.5 IU/L
same,ALT,3 h,35 IU/L
same,AST,3 h,72.2 IU/L
same,BUN,3 h,12 mg/dL
same,CRE,3 h,0.2 mg/dL
same,Ca,3 h,10.5 mg/dL
same,Cl,3 h,105.8 meq/L
same,DBIL,3 h,0 mg/dL
same,GLC,3 h,180.5 mg/dL
same,IP,3 h,9.8 mg/dL
same,K,3 h,4 meq/L
same,LDH,3 h,221.5 IU/L
same,Na,3 h,141.2 meq/L
same,PL,3 h,136 mg/dL
same,RALB,3 h,2.9 g/dL
same,TBIL,3 h,0 mg/dL
same,TC,3 h,78 mg/dL
same,TG,3 h,34.8 mg/dL
same,TP,3 h,5.2 g/dL
same,gamma-GTP,3 h,1 IU/L
same,TERMINAL_BW,6 h,212.4 g
same,APTT,6 h,21.7 s
same,Bas,6 h,0%
same,Eos,6 h,0.8%
same,Fbg,6 h,325.8 mg/dL
same,Hb,6 h,13 g/dL
same,Ht,6 h,38%
same,Lym,6 h,72.2%
same,MCH,6 h,21 pg
same,MCHC,6 h,34.3%
same,MCV,6 h,61.4 fL
same,Mono,6 h,2%
same,Neu,6 h,23.8%
same,PT,6 h,15.6 s
same,Plat,6 h,125.7 x10_4/uL
same,RBC,6 h,619.8 x10_4/ul
same,Ret,6 h,8%
same,WBC,6 h,79.9 x10_2/uL
same,KIDNEY_L,6 h,0.9 g
same,KIDNEY_R,6 h,0.9 g
same,KIDNEY_TOTAL,6 h,1.8 g
same,LIVER,6 h,9.2 g
same,A/G,6 h,1.3
same,ALP,6 h,1181.8 IU/L
same,ALT,6 h,35 IU/L
same,AST,6 h,75.4 IU/L
same,BUN,6 h,8.8 mg/dL
same,CRE,6 h,0.1 mg/dL
same,Ca,6 h,10.8 mg/dL
same,Cl,6 h,106.8 meq/L
same,DBIL,6 h,0.002 mg/dL
same,GLC,6 h,180 mg/dL
same,IP,6 h,9.9 mg/dL
same,K,6 h,4.1 meq/L
same,LDH,6 h,237.8 IU/L
same,Na,6 h,142 meq/L
same,PL,6 h,159.2 mg/dL
same,RALB,6 h,3 g/dL
same,TBIL,6 h,0.002 mg/dL
same,TC,6 h,93.6 mg/dL
same,TG,6 h,44.6 mg/dL
same,TP,6 h,5.5 g/dL
same,gamma-GTP,6 h,1.4 IU/L

# Source: ChEMBL document CHEMBL3885861, “Open TG-GATES”
